The results in this text go back to PMC10667598 (Scientific Reports, 2023).

The assay addresses T1, VcCBP (Vibrio cholerae, UniProt Q9KUA3).
T1 construct: gene VC_0620

T1 sequence (Q9KUA3 28-556 limits assumed): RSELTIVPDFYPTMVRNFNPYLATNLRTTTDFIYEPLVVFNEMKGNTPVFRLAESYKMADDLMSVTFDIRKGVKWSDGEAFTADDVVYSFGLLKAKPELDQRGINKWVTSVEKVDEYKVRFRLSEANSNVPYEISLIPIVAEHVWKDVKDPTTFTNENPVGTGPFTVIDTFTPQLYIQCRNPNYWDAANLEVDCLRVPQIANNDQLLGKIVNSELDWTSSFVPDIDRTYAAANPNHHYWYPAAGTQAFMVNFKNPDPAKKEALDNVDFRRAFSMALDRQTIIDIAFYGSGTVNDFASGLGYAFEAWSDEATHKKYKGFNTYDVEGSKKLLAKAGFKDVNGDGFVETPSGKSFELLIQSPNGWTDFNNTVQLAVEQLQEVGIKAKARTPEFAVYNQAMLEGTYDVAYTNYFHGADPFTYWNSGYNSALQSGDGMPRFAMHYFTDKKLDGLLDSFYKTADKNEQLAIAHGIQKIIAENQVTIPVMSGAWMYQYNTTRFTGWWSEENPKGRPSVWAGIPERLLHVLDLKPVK

In the case of `CC(=O)N[C@H]1[C@H](O[C@H]2[C@H](O)[C@@H](NC(C)=O)C(O)O[C@@H]2CO)O[C@H](CO)[C@@H](O)[C@@H]1O` (stereo partly shown) [(GlcNAc)2], the Kd is 245 nM.
